Test results taken from US10227331B2 (priority 2015, dated 2019).
pIC50: −log10 of the molar value. Like-named read-outs stand apart in the source and are kept apart here.

Legend:
IMP-1 = IMP-1 (Serratia marcescens, UniProt P52699); test: biochemical; format: biochemical
In short: (§1)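 IC50 values derive from 4-parameter fits of percent inhibition against inhibitor concentration on semi-log axes. Activity was monitored by fluorescence with the CCF2-FA substrate after a 2-hour, 25° C incubation of compound, enzyme and substrate.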

NDM-1 = NDM-1 (Klebsiella pneumoniae, UniProt C7C422); test: biochemical; format: biochemical; conditions: CCF2-FA substrate, 2 hours at 25° C; read-out: NDM-1 IC50
In short: as §1

VIM-1 = VIM-1 (Pseudomonas aeruginosa (strain ATCC 15692 / DSM 22644 / CIP 104116 / JCM 14847 / LMG 12228 / 1C / PRS 101 / PAO1), UniProt A0A0F7KYQ8); test: biochemical; conditions: CCF2-FA substrate, 2 hours at 25° C
In short: as §1

[1] = system: Escherichia coli expressing NDM-1 (CLB30005, CLB30016); format: cell-based; conditions: with imipenem 1 μg/ml, 95% inhibition of bacterial growth; for Escherichia coli MITC95: NDM-1 (CLB30016)
In short: (§2)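 Restoration of imipenem susceptibility (1 μg/ml imipenem) was judged by absorbance after 22–24 h at 35° C. Test compound was added to bacteria suspended 1:100 in 1.1× CAMHB from overnight blood-agar cultures.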

[2] = system: Klebsiella pneumoniae expressing VIM-1 (IHMA599644); format: cell-based; conditions: with imipenem 1 μg/ml, 95% inhibition of bacterial growth; for Klebsiella pneumoniae MITC95: VIM-1 (IHMA599644)
In short: as §2

[3] = system: Serratia marcescens expressing IMP-1 (CL5741); format: cell-based; conditions: with imipenem 1 μg/ml, 95% inhibition of bacterial growth; for Serratia marcescens MITC95: IMP-1 (CL5741)
In short: as §2

[4] = system: P. aeruginosa expressing IMP-1, efflux+ (MB9798); format: cell-based, Pseudomonas aeruginosa; conditions: for P. aeruginosa expressing IMP-1, efflux+ (MB9798) MITC95: imipenem at 2 μg/mL, in the presence of a class A, C, D serine β-lactamase inhibitor closely related to relebactam; for Efflux ratio: ratio MITC95 PA_9798/MITC95 PA_9799
Description: (§3) The strain background is Pseudomonas aeruginosa PAO1.

[5] = system: P. aeruginosa expressing IMP-1, efflux− (MB9799); test: Efflux: concentration of MBL inhibitor which restores susceptibility to imipenem; format: cell-based, Pseudomonas aeruginosa; conditions: imipenem at 2 μg/mL, in the presence of a class A, C, D serine β-lactamase inhibitor closely related to relebactam
Description: as §3

[6] = CCF2-FA substrate, 2 hours at 25° C, read-out: IMP-1 IC50

Chain of IMP-1 (P52699 whole entry, looked up, species assumed): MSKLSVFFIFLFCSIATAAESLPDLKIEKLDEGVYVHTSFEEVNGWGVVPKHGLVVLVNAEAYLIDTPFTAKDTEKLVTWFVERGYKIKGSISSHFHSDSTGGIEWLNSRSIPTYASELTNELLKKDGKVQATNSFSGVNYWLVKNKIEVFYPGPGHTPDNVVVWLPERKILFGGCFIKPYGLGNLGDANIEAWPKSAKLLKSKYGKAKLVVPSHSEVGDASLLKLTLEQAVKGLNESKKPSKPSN
Chain of NDM-1 (C7C422 whole entry, looked up, species assumed): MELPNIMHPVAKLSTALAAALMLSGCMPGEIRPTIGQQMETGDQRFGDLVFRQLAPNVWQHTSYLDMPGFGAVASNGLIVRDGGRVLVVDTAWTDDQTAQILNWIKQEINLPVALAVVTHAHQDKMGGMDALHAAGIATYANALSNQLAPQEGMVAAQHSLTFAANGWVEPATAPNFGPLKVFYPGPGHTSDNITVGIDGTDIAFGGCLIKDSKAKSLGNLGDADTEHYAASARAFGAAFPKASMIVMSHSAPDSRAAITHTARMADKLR

SMILES	pIC50 (IMP-1; [6])	pIC50 (NDM-1)	pIC50 (VIM-1)	Escherichia coli MITC95 [1]	Klebsiella pneumoniae MITC95 [2]	Serratia marcescens MITC95 [3]	P. aeruginosa expressing IMP-1, efflux+ (MB9798) MITC95 [4]	Efflux ratio [4]	P. aeruginosa expressing IMP-1, efflux− (MB9799) MITC95 [5]	Escherichia coli expressing NDM-1 (CLB30016) MITC95 [1]	Klebsiella pneumoniae expressing VIM-1 (IHMA599644) MITC95 [2]	Serratia marcescens expressing IMP-1 (CL5741) MITC95 [3]	pIC50 (IMP-1)
C[C@H](N)CS(=O)(=O)c1ccc(-c2cccc3[nH]c(C(=O)O)nc23)c(-c2nn[nH]n2)c1S(N)(=O)=O [Example 294, 4-(4-((S)-2-aminopropylsulfonyl)-3-sulfamoyl-2-(2H-tetrazol-5-yl)phenyl)-1H-benzo[d]imidazole-2-carboxylic Acid]	9.46	10.08	9.73	1.563 µM	3.125 µM	3.125 µM	1.563 µM	1.00	1.563 µM	–	–	–	–
NS(=O)(=O)c1c(S(=O)(=O)C2CNC2)ccc(-c2ccc3nccnc3c2)c1-c1nnn[nH]1.O=C(O)C(F)(F)F [Example 117, 3-((4-(quinoxalin-6-yl)-2-sulfamoyl-3-(1H-tetrazol-5-yl)phenyl)sulfonyl)azetidin-1-ium 2,2,2-trifluoroacetate]	8.85	9.03	9.37	–	–	–	25 µM	15.99	1.563 µM	6.25 µM	6.25 µM	3.125 µM	–
NS(=O)(=O)c1c(S(=O)(=O)C2CNC2)ccc(-c2cnc3cc[nH]c3c2)c1-c1nn[nH]n1 [Example 16, 6-(Azetidin-3-ylsulfonyl)-3-(1H-pyrrolo[3,2-b]pyridin-6-yl)-2-(2H-tetrazol-5-yl)benzenesulfonamide]	8.63	9.31	9.19	–	–	–	6.25 µM	4.00	1.563 µM	0.3906 µM	3.125 µM	0.7813 µM	–
NCCS(=O)(=O)c1ccc(-c2cccc3sc(C(=O)O)nc23)c(-c2nn[nH]n2)c1S(N)(=O)=O [Example 88, 4-(4-(2-aminoethylsulfonyl)-3-sulfamoyl-2-(2H-tetrazol-5-yl)phenyl)benzo[d]thiazole-2-carboxylic acid]	9.84	10.28	9.80	–	–	–	6.25 µM	2.00	3.125 µM	1.563 µM	12.5 µM	6.25 µM	–
NCCCS(=O)(=O)c1ccc(-c2cccc3sc(N)nc23)c(-c2nn[nH]n2)c1S(N)(=O)=O [Example 194, 3-(2-aminobenzo[d]thiazol-4-yl)-6-(3-aminopropylsulfonyl)-2-(2H-tetrazol-5-yl)benzenesulfonamide]	9.81	10.04	9.68	–	–	–	0.3906 µM	0.50	0.7813 µM	0.7813 µM	1.563 µM	0.7813 µM	–
CS(=O)(=O)c1ccc(-c2ccc(C3CCNCC3)cc2)c(-c2nnn[nH]2)c1S(N)(=O)=O [Example 236, 4-(methylsulfonyl)-4′-(piperidin-4-yl)-2-(1H-tetrazol-5-yl)-[1,1′-biphenyl]-3-sulfonamide]	9.99	8.67	9.90	–	–	–	6.25 µM	8.00	0.7813 µM	3.125 µM	3.125 µM	3.125 µM	–
Nc1nc2c(-c3ccc(S(=O)(=O)CCN4CCOCC4)c(S(N)(=O)=O)c3-c3nn[nH]n3)cccc2s1 [Example 258, 3-(2-Aminobenzo[d]thiazol-4-yl)-6-((2-morpholinoethyl)sulfonyl)-2-(2H-tetrazol-5-yl)benzenesulfonamide]	–	9.64	9.34	25 µM	25 µM	12.5 µM	12.5 µM	2.00	6.25 µM	–	–	–	9.33
CN1CC(S(=O)(=O)c2ccc(-c3cccc4[nH]c(N)nc34)c(-c3nn[nH]n3)c2S(N)(=O)=O)C1 [Example 52, 3-(2-amino-1H-benzo[d]imidazol-4-yl)-6-(1-methylazetidin-3-ylsulfonyl)-2-(2H-tetrazol-5-yl)benzenesulfonamide]	8.88	9.65	9.20	–	–	–	6.25 µM	4.00	1.563 µM	0.3906 µM	3.125 µM	1.563 µM	–
NS(=O)(=O)c1c(S(=O)(=O)C2CNC2)ccc(-c2cncnc2)c1-c1nnn[nH]1.O=C(O)C(F)(F)F [Example 110, 3-((4-(pyrimidin-5-yl)-2-sulfamoyl-3-(1H-tetrazol-5-yl)phenyl)sulfonyl)azetidin-1-ium 2,2,2-trifluoroacetate]	7.88	8.32	8.46	–	–	–	25 µM	15.99	1.563 µM	1.563 µM	3.125 µM	1.563 µM	–
Nc1nc2c(-c3ccc([S+]([O-])C4CNC4)c(S(N)(=O)=O)c3-c3nn[nH]n3)cccc2[nH]1 (stereo not drawn) [Example 13, 3-(2-amino-1H-benzo[d]imidazol-4-yl)-6-(azetidin-3-ylsulfinyl)-2-(2H-tetrazol-5-yl)benzenesulfonamide]	7.29	9.21	8.18	–	–	–	6.25 µM	4.00	1.563 µM	0.3906 µM	1.563 µM	3.125 µM	–
CCn1c(N)nc2c(-c3ccc(S(=O)(=O)C4CNC4)c(S(N)(=O)=O)c3-c3nn[nH]n3)cccc21 [Example 283, 3-(2-amino-1-ethyl-1H-benzo[d]imidazol-4-yl)-6-(azetidin-3-ylsulfonyl)-2-(2H-tetrazol-5-yl)benzenesulfonamide]	9.30	9.93	9.46	0.3906 µM	1.563 µM	1.563 µM	6.25 µM	4.00	1.563 µM	–	–	–	–
